What all share (type): cell-based, human
Series [1] has as its system SAS and FaDu cells. In words: Semi-quantitative radiosensitization grade over SAS and FaDu. Conditions: clonogenic survival with irradiation. On the set-up: key: no radiosensitization (“-”); weak effect or effect in one cell line only (“+/−”); clear/strong (“+”) radiosensitization. The procedure:
(§1) defined low density (150-300 cells in 1 ml per well). After 8 h of incubation to allow cell adherence, 50% of the supernatant was exchanged by media containing the respective prodrugs at 2x concentration and exposed for 48 h. Treatment was then terminated by medium removal, and cells were allowed to grow for a period of ≥5-6 cell divisions estimated from the cell line-specific doubling times of the respective untreated controls (~7 days for SAS and ~10 days for FaDu cells). Control cells were always handled in parallel to the treated cells and thus exposed to the corresponding DMSO concentration(s). After the defined growth intervals, cells were fixed, stained and colonies of >50 cells were manually counted at low magnification to calculate plating efficiencies as the number of counted colonies relative to the number of seeded cells. Drug effect on clonogenic survival was then estimated by normalizing the colony formation of control cells to 1 (Table S9).
The colony formation assay was also applied for monitoring radioresponse. Here, increasing numbers of single cells relative to the irradiation dose (0-10 Gy) were seeded into 6-well plates (150-2400 SAS cells/well and 300-4800 FaDu cells/well).
Cells were treated with the drugs upon attachment as described. The total period of drug exposure was 48 h, and single dose irradiation was carried out 24 h after addition of the compounds. X-ray was performed at room temperature with a YxlonY.TU 320 system (Yxlon.international, 200 kV, 0.5 mm Cu filter) and a dose rate of ~1.3 Gy/min. Drug exposure was terminated by medium exchange and cultures were then incubated for the additional time period highlighted earlier.
Plating efficiencies were assessed and normalized for each treatment arm to the respective unirradiated control. Data were reproduced (N=3 each with n=3 wells per experiment and treatment condition). The relative clonogenic cell survival (= survival fraction, SF) was then plotted as function of the irradiation dose, and clonogenic survival curves were fitted employing the linear quadratic model as described

Series [2] relates to A2780 cells. In words: Cell viability, MTT assay, A2780. The procedure: Determination of viability of cells in the presence of prodrugs and controls A2780 and BL-2 cells The medium was removed, and the cells were washed two times with DPBS, trypsinated, and resuspended in RPMI 1640 medium (A2780) supplemented with 5% FBS (for 24 h and 48 h assay) or 10% FBS (for 96 h assay) , 1% L-glutamine, and 1% penicillin/streptomycin.
A2780 cells: This suspension was spread in the wells of a 96 -well microtiter plate (25000 cells for A2780 per well per 100 μL) and left standing at 37 °C in the chamber filled with CO2 (5%) for overnight. Stock solutions of prodrugs of different concentra tions (1 μL, solvent dmso, final concentrations in wells were 2, 5, 10, 30, 50 μM) were added to the wells and incubated for specific periods of time. Four experiments were conducted for each concentration of the prodrug. Finally, 3-(4,5-dimethylthiazol-2-yl)-2,5-diphenyltetrazolium bromide (MTT, 20 μL of the solution prepared by dissolving MTT (5 mg) in DPBS buffer (1 mL)) was added to each well, incubated for 3 h, treated with sodium dodecyl sulfate (SDS) solution (90 μL, 10% solution in 0.01 M aqueous HC l), and incubated overnight. Afterward, the intensity of the absorbance at 590 nm was measured.
MTT is converted in live cells to blue dye with the absorbance maximum λ max at 590 nm.
The absorbance at 690 nm was taken as a baseline value. The baseline corrected absorbance at 590 nm (A(590 nm) − A(690 nm)) was applied to calculate the relative number of viable cells. IC50 values were determined by fitting the experimental data expressing the number of viable cells (%, Y-axis) versus drug concentration (μM, X-axis) with a line curve and the X-axis value corresponding to 50% viability was considered as IC50 value according to the line curve (Figure S50, Table S2). […]

In series [3] the test system is FaDu cells. As to the kind of experiment: Clonogenic assay (colony formation), FaDu. As to conditions: for Relative clonogenic survival: 48 h exposure, untreated control = 1. The procedure: (§2) Optimization of concentration of prodrugs and controls / clonogenic assay The clonogenic survival assay is a classical approach to monitor radioresponse and drug- induced radiosensitization in cancer cells. We therefore initially determined whether the supposedly non -toxic drug concentrations defined for combinatorial treatment testing affect single cell colony formation capacity. For this pu rpose, exponentially growing SAS and FaDu cells were dissociated, single cell suspensions were prepared in standard DMEM and seeded in 6 -well plates at […]
as §1, with “S9). […]” for “S9).”

Series [4] has as its system SAS cells. In words: Clonogenic assay (colony formation), SAS. Conditions: for Relative clonogenic survival: 48 h exposure, untreated control = 1. The procedure:
as §2
as §1, with “S9). […]” for “S9).”

For `CC1(C)OB(c2ccc(COC(=O)N(Cc3cn(Cc4ccc(Cn5cc(Cc6ccccc6)nn5)cc4)nn3)[c-]3cccc3)cc2)OC1(C)C.[Fe+2].c1cc[cH-]c1` [2c], the figures for the Radiosensitization entry in series [1] (10 µM) and in series [1] (25 µM) were “+/−” and “+”, respectively. The “cell viability at which the effect is saturated” value in series [2] (A2780, 24 h) stood at 70%; in series [2] (A2780, 48 h), 50%; in series [2] (A2780, 96 h), 43%. Besides, the IC50 in series [2] (A2780, 24 h incubation) was above 30 µM; in series [2] (A2780, 48 h incubation) it was above 30 µM; in series [2] (A2780, 96 h incubation), 4 ± 0.5 µM. Besides, the Relative clonogenic survival is recorded as 0.86 ± 0.13 in series [3] (10 µM), 0.20 ± 0.08 in series [3] (25 µM), 0.78 ± 0.13 in series [4] (10 µM) and 0.70 ± 0.10 in series [4] (25 µM). The “growth of colonies reduced to” value in series [3] (25 µM) was 20 ± 8%; in series [4] (25 µM) it was 70 ± 10%.

On to `CC1(C)OB(c2ccc(COC(=O)N(Cc3cccc(CN4CCCCC4)c3)[c-]3cccc3)cc2)OC1(C)C.[Fe+2].c1cc[cH-]c1` [5b], for which the Radiosensitization entry in series [1] (1 µM) and in series [1] (2.5 µM) was “+” throughout. Also, the IC50 in series [2] (A2780, 48 h incubation) turned out to be 7 ± 2 µM; in series [2] (A2780, 96 h incubation), 7 ± 2 µM. Besides, the Relative clonogenic survival in series [3] (0.5 µM) is listed as 0.71 ± 0.07; in series [3] (1 µM), 0.75 ± 0.11; in series [3] (2.5 µM), 0.36 ± 0.10; in series [4] (0.5 µM) it was 0.96 ± 0.06; in series [4] (1 µM), 0.76 ± 0.06; in series [4] (2.5 µM), 0.36 ± 0.15. Also, the entries for the “colony formation reduced to” value in series [3] (10-fold lower dose than 25 µM) and in series [4] (10-fold lower dose than 25 µM) were 36 ± 10% and 36 ± 15%, respectively.

Consider `CCOC(=O)CCCCCn1cc(CN(C(=O)OCc2ccc(B3OC(C)(C)C(C)(C)O3)cc2)[c-]2cccc2)nn1.[Fe+2].c1cc[cH-]c1` [compound 1], for which the IC50 in series [2] (A2780, 48 h incubation) came to 32 ± 3 µM; in series [2] (A2780, 96 h incubation), 30 ± 5 µM.

For the compound `[Fe+2].c1cc[cH-]c1.c1cc[cH-]c1` [compound 6, ferrocene], the Radiosensitization result in series [1] (25 µM) is recorded as “-”. The 50% inhibitory concentration (IC50) in series [2] (A2780, 24 h incubation) was above 100 µM; in series [2] (A2780, 48 h incubation), above 100 µM; in series [2] (A2780, 96 h incubation), above 100 µM. Also, the Relative clonogenic survival in series [3] (25 µM) came out at 0.99 ± 0.08; in series [4] (25 µM), 0.88 ± 0.10.

Values taken from article PMC8750417, “Intracellular Amplifiers of Reactive Oxygen Species Affecting Mitochondria as Radiosensitizers” (Cancers, 2021).
